In patent US10233173B2, “Substituted 1,2,3-triazoles as NR2B-selective NMDA modulators” (JANSSEN PHARMACEUTICA NV, priority 2016, dated 2019) one finds IC50 data, which are given here for 17 compounds.

human GluN1/GluN2B NMDA receptors, sequence (Q13224 27-1484, other chains not shown): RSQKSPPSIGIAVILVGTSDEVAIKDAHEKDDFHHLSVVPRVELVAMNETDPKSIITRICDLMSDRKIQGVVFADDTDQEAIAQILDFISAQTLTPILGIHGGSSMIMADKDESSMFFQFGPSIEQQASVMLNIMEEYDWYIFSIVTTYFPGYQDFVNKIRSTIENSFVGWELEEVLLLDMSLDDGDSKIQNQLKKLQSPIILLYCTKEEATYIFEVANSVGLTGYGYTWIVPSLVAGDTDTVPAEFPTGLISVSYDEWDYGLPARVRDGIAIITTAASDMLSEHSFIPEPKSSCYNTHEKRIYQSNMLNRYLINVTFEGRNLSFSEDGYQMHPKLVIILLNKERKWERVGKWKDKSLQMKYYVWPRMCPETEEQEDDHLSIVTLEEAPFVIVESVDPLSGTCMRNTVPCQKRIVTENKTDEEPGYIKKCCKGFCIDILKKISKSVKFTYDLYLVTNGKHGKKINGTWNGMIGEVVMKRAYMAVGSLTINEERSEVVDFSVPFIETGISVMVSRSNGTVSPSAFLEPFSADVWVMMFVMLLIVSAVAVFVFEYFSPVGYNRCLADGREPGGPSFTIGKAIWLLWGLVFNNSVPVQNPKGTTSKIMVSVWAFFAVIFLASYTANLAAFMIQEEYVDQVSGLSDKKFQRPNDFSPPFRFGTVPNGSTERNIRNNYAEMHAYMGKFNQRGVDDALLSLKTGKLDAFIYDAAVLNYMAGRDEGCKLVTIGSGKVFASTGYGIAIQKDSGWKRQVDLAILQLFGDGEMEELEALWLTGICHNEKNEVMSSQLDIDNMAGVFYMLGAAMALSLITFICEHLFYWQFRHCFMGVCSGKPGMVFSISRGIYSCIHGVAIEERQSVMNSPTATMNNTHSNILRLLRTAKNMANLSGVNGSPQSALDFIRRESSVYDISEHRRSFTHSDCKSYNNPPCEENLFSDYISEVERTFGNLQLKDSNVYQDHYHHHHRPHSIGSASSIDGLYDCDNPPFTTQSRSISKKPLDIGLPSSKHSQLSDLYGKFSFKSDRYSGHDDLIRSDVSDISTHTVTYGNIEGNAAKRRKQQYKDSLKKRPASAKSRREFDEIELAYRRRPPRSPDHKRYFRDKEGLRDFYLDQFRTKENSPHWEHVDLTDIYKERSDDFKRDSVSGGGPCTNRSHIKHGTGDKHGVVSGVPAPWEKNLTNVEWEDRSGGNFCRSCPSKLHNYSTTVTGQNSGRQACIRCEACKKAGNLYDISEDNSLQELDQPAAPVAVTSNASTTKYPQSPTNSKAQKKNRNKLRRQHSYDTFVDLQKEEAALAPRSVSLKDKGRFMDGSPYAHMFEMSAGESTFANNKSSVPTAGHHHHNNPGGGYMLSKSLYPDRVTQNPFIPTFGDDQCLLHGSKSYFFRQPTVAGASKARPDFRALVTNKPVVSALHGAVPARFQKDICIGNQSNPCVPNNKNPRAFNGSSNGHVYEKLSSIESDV

The first test addresses human GluN1/GluN2B NMDA receptors (Homo sapiens, UniProt Q05586+Q13224). In words: Cell-based calcium flux (FLIPR) assay on cloned human NR1/NR2B ion channels expressed in mammalian cells. The note with it: standard assay; glutamate at ~EC80; FLIPR calcium flux. In short, it runs like this: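 Calcium influx followed by FLIPR fluorescence after 5 min compound exposure and a further 5 min co-agonist challenge: 10 μM glycine with glutamate at ~EC80 (standard) or EC40 (HTS).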
On the technique in general: Calcium flux is commonly read through the fluorescence of an indicator in the cells.
The IC50 is the concentration at which inhibition is half-maximal. Regarding `Fc1ccc(-n2cc(COc3ncc(N4CCC4)cn3)nn2)cc1C(F)F` [Example 417, 5-(Azetidin-1-yl)-2-((1-(3-(difluoromethyl)-4-fluorophenyl)-1H-1,2,3-triazol-4-yl)methoxy)pyrimidine], the IC50 amounted to 0.006 µM.
`CN(C)c1ccnc(OCc2cn(-c3ccc(Cl)c(C(F)F)c3)nn2)n1` [Example 629, 2-[[1-[4-Chloro-3-(difluoromethyl)phenyl]triazol-4-yl]methoxy]-N,N-dimethyl-pyrimidin-4-amine]: the half-maximal inhibitory concentration (IC50) stood at 0.007 µM.
As for `CCc1cnc(OCc2cn(-c3ccnc(C(F)(F)F)c3)nn2)nc1` [Example 667, 5-Ethyl-2-[[1-[2-(trifluoromethyl)-4-pyridyl]triazol-4-yl]methoxy]pyrimidine], the IC50 came to 0.184 µM.
For `CNc1ccnc(OCc2cn(-c3ccc(F)c(C(F)F)c3)nn2)n1` [Example 413, 2-[[1-[3-(Difluoromethyl)-4-fluoro-phenyl]triazol-4-yl]methoxy]-N-methyl-pyrimidin-4-amine], the concentration for half-maximal inhibition (IC50) stood at 0.015 µM.
Regarding `Cc1cnc(OCc2cn(-c3ccc(F)c(F)c3)nn2)nc1` [Example 601, 2-[[1-(3,4-Difluorophenyl)triazol-4-yl]methoxy]-5-methyl-pyrimidine], the IC50 came out at 0.048 µM.
On the same count and under the same terms, the result for `Fc1ccc(-n2cc(COc3ncc(N4CC(F)(F)C4)cn3)nn2)cc1OC(F)F` [Example 508, 5-(3,3-Difluoroazetidin-1-yl)-2-[[1-[3-(difluoromethoxy)-4-fluoro-phenyl]triazol-4-yl]methoxy]pyrimidine] reads 0.019 µM.
With `Cc1cnc(OCc2cn(-c3ccc(Cl)c(C(F)F)c3)nn2)nc1N` [Example 632, 2-[[1-[4-chloro-3-(difluoromethyl)phenyl]triazol-4-yl]methoxy]-5-methyl-pyrimidin-4-amine], the concentration for half-maximal inhibition (IC50) came to 0.004 µM.

Staying with this test, now noted: standard assay; human GluN1/GluN2B, calcium flux (FLIPR), glutamate ~EC80.
For `OCc1ccnc(OCc2cn(-c3cccc(C(F)F)c3)nn2)n1` [Example 159, [2-[[1-[3-(Difluoromethyl)phenyl]triazol-4-yl]methoxy]pyrimidin-4-yl]methanol], the IC50 worked out at 0.408 µM.
Same read-out and setting: the result for `CCc1cnc(OCc2cn(-c3ccc(C)cc3)nn2)nc1` [Example 261, 5-Ethyl-2-[[1-(p-tolyl)triazol-4-yl]methoxy]pyrimidine] reads 0.093 µM; that for `CC(C)c1cnc(NCc2cn(-c3ccc(F)c(C(C)(F)F)c3)nn2)nc1` [Example 208, N-[[1-[3-(1,1-Difluoroethyl)-4-fluoro-phenyl]triazol-4-yl]methyl]-5-isopropyl-pyrimidin-2-amine], 0.581 µM.
Turning to `COc1cnc(OCc2cn(-c3ccc(Cl)c(OC)c3)nn2)nc1` [Example 87], the IC50 worked out at 0.012 µM.
Still for that read-out and setting: with `CC(C)(O)c1cnc(OCc2cn(-c3ccc(Cl)c(OC(F)F)c3)nn2)nc1` [Example 385, 2-[2-[[1-[4-Chloro-3-(difluoromethoxy)phenyl]triazol-4-yl]methoxy]pyrimidin-5-yl]propan-2-ol] the figure was 0.028 µM; with `Cc1cnc(OCc2cn(-c3cccc(OC(F)(F)F)c3)nn2)nc1` [Example 342, 5-Methyl-2-[[1-[3-(trifluoromethoxy)phenyl]triazol-4-yl]methoxy]pyrimidine], 0.017 µM; with `Cc1ccccc1-n1cc(COc2ncc(Cl)cn2)nn1` [Example 239, 5-Chloro-2-[[1-(o-tolyl)triazol-4-yl]methoxy]pyrimidine], 4.8 µM.
The same measure, in the same setting: with `Cc1ccnc(OCc2cn(-c3cccc(C(C)(F)F)c3)nn2)n1` [Example 296, 2-[[1-[3-(1,1-Difluoroethyl)phenyl]triazol-4-yl]methoxy]-4-methyl-pyrimidine] the figure was 0.012 µM; with `FC(F)Oc1cc(-n2cc(COc3ncccn3)nn2)ccc1Cl` [Example 10, 2-[[1-[4-Chloro-3-(difluoromethoxy)phenyl]triazol-4-yl]methoxy]pyrimidine], 0.01 µM.
As to `CC(Oc1ncccn1)c1cn(-c2ccc(Cl)c(OC(F)F)c2)nn1` (racemic) [Example 53, (R/S)-2-[1-[1-[4-Chloro-3-(difluoromethoxy)phenyl]triazol-4-yl]ethoxy]pyrimidine], the IC50 came out at 0.026 µM.
